Reference: US20100292085A1, “Methods and compositions for characterization of HSD1 inhibitors” (priority 2005, published 2010)

What was measured:
HepG2/HSD1 cells [1] = assay: Off-target effects by microarray: number of genes changed, no cortisone; type: cell-based, human; settings: number of genes changed vs forskolin alone
Protocol: (§1) Total RNA isolated from cultured cell samples was used to make fluorescently labeled cRNA that was hybridized to DNA oligonucleotide microarrays as described previously (Hughes et al., supra., Marton et al., 1998, Nat. Med. 4:1293-301). Briefly, 4 μg of total RNA from each cell culture sample was used to synthesize dsDNA through RT. cRNA was produced by in vitro transcription and labeled postsynthetically with Cy3 or Cy5. Two populations oflabeled cRNA, a control population from vehicle/forskolin treated cells and an experimental population, i.e., cortisone/forskolin plus vehicle or plus HSD1 test compound, were compared with each other by competitive hybridization to microarrays. Two hybridizations were done with each cRNA sample pair using a fluorescent dye reversal strategy.
The human microarrays used in this study contained 23,653 oligonucleotide probes corresponding to individual genes or expressed sequence tags. […]
(§2) After hybridization, arrays were scanned and fluorescence intensities for each probe were recorded. […] For each gene sequence present on the microarrays, statistical significance of differential gene expression was determined by calculating P values according to the following equation: […]
HSD1 compounds were evaluated using microarray gene expression measurements obtained from HepG2/HSD1 cells under conditions where the cells were not treated with cortisone. […]

SCD = assay: Off-target activity by SCD expression level (microarray); type: cell-based, human; settings: HepG2/HSD1 cells, 10 μM forskolin, no cortisone, vs forskolin alone; microarray probe
Protocol: as §1
Each HSD1 inhibitor compound treated sample was compared to a forskolin alone cell sample. The HepG2/HSD1 cells used in these experiments were not contacted with cortisone.

[2] = tested on: off-target signature genes (SCD, DHCR7, ACLY, FBXO9, HEY1); assay: Off-target signature genes measured by RT-PCR (TAQman) in HepG2/HSD1 cells; type: cell-based, human
Protocol: HepG2 cells stably transfected with human HSD1, as previously described in Example 1, were plated in either 96 well or 24 well tissue culture plates. Cells were plated at a density of 6.25×10^5 cells/well on 24 well plates in 500 μl DMEM culture medium prepared as previously described. For the 96 well plates, the cells were plated at a density of 1×10^5 cells per well in 100 μl culture medium. The cells were incubated at 37° C. in a 5% CO2 atmosphere. After 24 hours, the culture medium was removed and the cells were pre-incubated with, either 250 μl (24 well plate) or 50 μl (96 well plate), Culture Medium containing 2× concentration of HSD1 inhibitor (14 μM) or vehicle for 20 min at 37° C. in a 5% CO2 atmosphere. Culture Medium (either 250 μl or 50 μl) containing 1000 nM cortisone (500 nM final concentration) or vehicle, and 20 μM forskolin (10 μM final concentration), was next added to the cells. The cells were further incubated for 20 hrs at 37° C. in a 5% CO2 atmosphere. […]
Oligonucleotide probes were labeled with the 6-FAM fluorophore at the 5′ end (FAM) and a non-fluorescent quencher at the 3′ end (NFQ). […] The levels of mRNA were normalized to the amount of 18S RNA detected in each sample using the Eukaryotic 18S rRNA Endogenous Control from Applied Biosystems. Levels of the target mRNAs in treated cells were calculated relative to the untreated cells.

HepG2/HSD1 cells [3] = assay: Identification of the off-target response signature by microarray (Table 6); type: cell-based, human
Source text: This off-target gene signature was not detected in other active HSD1 inhibitor compounds with in vivo efficacy. Monitoring for the off-target signature identified by 3-(2-chlorophenyl)-4-methyl-5-(4-pentylbicyclo[2.2.2]oct-1-yl)-4H-1,2,4-triazole in the HepG2 cells over-expressing HSD1 can improve characterization and selection of candidate HSD1 compounds prior to in vivo efficacy testing.
as §1, with “strategy. […]” for “strategy.”

HSD1 [4] = molecular target: T1, HSD1 (Homo sapiens, UniProt P28845); assay: In vivo efficacy of HSD1 inhibitor; design: host or cells: in vivo
HSD1 [5] = molecular target: T1, HSD1; assay: HSD1 signature reversal activity: microarray of cortisone signature genes in HepG2/HSD1 cells; type: cell-based; design: expressed in transfected cells; settings: slope of linear regression vs cortisone treatment alone (1.0 = no inhibition), Table 2 genes, 500 nM cortisone, 10 μM forskolin, inhibitor added as 2× concentration (14 μM), 20 hrs
Protocol: HepG2 human hepatoma cells stably transfected with human 11βHSD1 (HepG2/HSD1 cells) were plated at 2×10^6 cells per well on 6-well plates in 1 ml Culture Medium (DMEM with 2 mM L-Glutamine, 10% charcoal-dextran-treated FBS, 100 U/ml Penicillin, 100 μg/ml streptomycin, 10 μM sodium pyruvate, 100 μM non-essential amino acids, 0.003 N NaOH) at 37° C./5% CO2. After 24 hours, the Culture Medium was replaced with 500 μl Culture Medium containing 1000 nM cortisone (500 nM final concentration) and 20 μM forskolin (10 μM final concentration). The cells were incubated for 20 hrs at 37° C./5% CO2. Samples were run in triplicates. […]
as §2
Gene expression changes in the cortisone signature genes were analyzed to further assess the degree to which HSD1-agents cause a reversal in the magnitude of the cortisone signature due to the degree of inhibition of HSD1 activity. Gene expression levels of the cortisone signature genes were measured in cortisone treated HepG2/HSD1 cells and HepG2/HSD1 cells treated with an HSD1-agent affecting HSD1 activity. […]

HSD1 [6] = molecular target: T1, HSD1; assay: Direct measurement of HSD1 activity: 3H-cortisone conversion to cortisol by HPLC; type: cell-based; design: expressed in transfected cells
Protocol: Oxidoreductase Method: [1,2-^3H]-cortisone (48.7 Ci/mmol) was added to a final concentration of 20 nM to HepG2/HSD1 (2×10^6 cells/well in 6-well plates) and incubated for 1.5, 3, 6 and 22 hrs at 37° C. in culture medium (Dulbecco's Modified Eagle Medium with high glucose containing 2 mM L-glutamine, 10% fetal bovine serum, 100 U/ml penicillin, 100 μg/ml Streptomycin, 10 μM sodium pyruvate, 100 μM non-essential amino acids, 0.003 N NaOH and 0.8 mg/ml Geneticin). The samples (100 μl aliquots) were then extracted with 300 μl ethyl acetate and the upper, organic phases were dried. The dried organic extracts were then resuspended either in 100 μl DMSO for analysis by reverse-phase HPLC (buffer A=10% methanol/90% water; buffer B=90% methanol/10% water using a gradient from 20-45% Buffer B; YMC Combiscreen Pro C18 50 mm×4.6 mm column; flow rate 2.5 mL/min).
HSD1 activity was measured by spiking the incubation medium with ^3H-cortisone. After 21 hrs post compound treatment, conversion of the cortisone to cortisol was assessed by HPLC analysis.

HSD1 [7] = molecular target: T1, HSD1; assay: Cortisone signature genes measured by RT-PCR (TAQman) in HepG2/HSD1 cells; type: cell-based; design: expressed in transfected cells
Protocol: HepG2 cells stably transfected with human HSD1, as previously described in Example 1, were plated in either 96 well or 24 well tissue culture plates. Cells were plated at a density of 6.25×10^5 cells/well on 24 well plates in 500 μl DMEM culture medium prepared as previously described. For the 96 well plates, the cells were plated at a density of 1×10^5 cells per well in 100 μl culture medium. The cells were incubated at 37° C. in a 5% CO2 atmosphere. After 24 hours, the culture medium was removed and the cells were pre-incubated with, either 250 μl (24 well plate) or 50 μl (96 well plate), Culture Medium containing 2× concentration of HSD1 inhibitor (14 μM) or vehicle for 20 min at 37° C. in a 5% CO2 atmosphere. Culture Medium (either 250 μl or 50 μl) containing 1000 nM cortisone (500 nM final concentration) or vehicle, and 20 μM forskolin (10 μM final concentration), was next added to the cells. The cells were further incubated for 20 hrs at 37° C. in a 5% CO2 atmosphere. All conditions were run in duplicates.
HepG2/HSD1 cells were lysed using Trizol reagent (Life Technologies, Grand Island, N.Y.). Total RNA was isolated from HepG2/HSD1 lysate using the RNeasy 96-Kit (Qiagen Inc., Valencia, Calif.) following the manufacturer's instructions, including the optional on-column removal of contaminating DNA step by RNase-free DNase I treatment. The RNA was reverse-transcribed to single stranded cDNA using random hexamer primers with TAQman reverse transcription reagents (Applied Biosystems, Foster City, Calif.).
The sequences of the TAQman primers and probes used to detect the target cDNAs were synthesized by Qiagen Operon (Alameda, Calif.) and are shown in Tables 8 and 9.
Oligonucleotide probes were labeled with the 6-FAM fluorophore at the 5′ end (FAM) and a non-fluorescent quencher at the 3′ end (NFQ). Real-time PCR was performed on human HepG2/HSD1 cDNA using the TaqMan Universal PCR Master Mix (Applied Biosystems, Foster City, Calif.) and appropriate primer/probe sets on an ABI Prism 7900HT Sequence Detection System (Applied Biosystems, Foster City, Calif.) in the 384-well format according to manufacturer's instructions. The levels of mRNA were normalized to the amount of 18S RNA detected in each sample using the Eukaryotic 18S rRNA Endogenous Control from Applied Biosystems. Levels of the target mRNAs in treated cells were calculated relative to the untreated cells.

[8] = RT-PCR, 500 nM cortisone + 10 μM forskolin, 20 hrs, inhibitor added as 2× concentration (14 μM)

T1 sequence (P28845 whole entry): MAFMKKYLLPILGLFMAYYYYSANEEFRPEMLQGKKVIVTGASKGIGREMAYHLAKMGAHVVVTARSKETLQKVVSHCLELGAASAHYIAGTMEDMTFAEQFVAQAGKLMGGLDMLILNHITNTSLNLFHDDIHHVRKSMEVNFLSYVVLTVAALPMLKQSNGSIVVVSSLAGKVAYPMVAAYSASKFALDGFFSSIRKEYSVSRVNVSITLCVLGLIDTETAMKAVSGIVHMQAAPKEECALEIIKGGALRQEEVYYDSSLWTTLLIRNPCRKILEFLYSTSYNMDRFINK

HSD1 Signature Reversal Activity Values (HSD1 [5]): 0.03
Percent Conversion to Cortisol (HSD1 [6]; 3H-cortisone spiked medium, 21 hrs post compound treatment, cortisone/forskolin, HPLC): 2%
Percent Conversion to Cortisol normalized to cortisone/forskolin value (HSD1 [6]; value in square brackets, cortisone/forskolin alone = 1.0): 0.05
G6PC Gene Transcript (Fold Change Relative to Vehicle Alone) (HSD1 [7]; [8]): 1.0 Fold Change
Homer-2 Gene Transcript (Fold Change Relative to Vehicle Alone) (HSD1 [7]; [8]): 1.5 Fold Change
LIPG Gene Transcript (Fold Change Relative to Vehicle Alone) (HSD1 [7]; [8]): 2.7 Fold Change
PGC Gene Transcript (Fold Change Relative to Vehicle Alone) (HSD1 [7]; [8]): 0.7 Fold Change
TAT Gene Transcript (Fold Change Relative to Vehicle Alone) (HSD1 [7]; [8]): 1.2 Fold Change
Average of five genes (cortisone signature, Fold Change Relative to Vehicle Alone) (HSD1 [7]; average of Homer-2, G6PC, PGC, TAT, LIPG): 1.4 Fold Change
SMILES: CCCCCC12CCC(c3nnc(-c4ccccc4Cl)n3C)(CC1)CC2 [3-(2-chlorophenyl)-4-methyl-5-(4-pentylbicyclo[2.2.2]oct-1-yl)-4H-1,2,4-triazole]
off-target activity (in words, from Table 5 microarray data) (HepG2/HSD1 cells [1]): high levels of off-target activity
Log ratio of SCD gene expression (SCD): 0.45
Average of five genes (off-target signature, Fold Change Relative to Vehicle Alone) [2]: 1.7 Fold Change
off-target signature (Table 6) in HepG2 cell line over-expressing HSD1 (in words) (HepG2/HSD1 cells [3]; independent of cortisone treatment): exhibited off-target activity
off-target response signature, number of gene markers (HepG2/HSD1 cells [3]; p-value<0.01, no fold change cut-off, common to three replicate studies, compound + forskolin): 330
efficacy in vivo (in words) (HSD1 [4]): failed to achieve significant efficacy in vivo
